Results taken from patent publication US12703731B2, “Long-acting GLP-1 compound” (Gan & Lee Pharmaceuticals Co., Ltd., priority 2019, dated 2026).

What was measured:
[1] = tested on: Kkay mice; experiment: Long-term pharmacodynamic study on Kkay mice (Example 17); type: in vivo; settings: s.c. 100 and 300 μg/kg; dulaglutide 600 μg/kg; FIGS. 9a-9b
Method: Before the start of the experiment on the day, the mice were evaluated for baseline blood glucose at about 9:00 a.m. and weighed. […] The vehicle contained 14 mg/mL propylene glycol, 5.5 mg/mL phenol and 1.133 mg/mL disodium hydrogen phosphate, with a pH value of 7.4.
(time 0) at back of the neck once every 2 days for 16 consecutive times, the blood glucose of the mice was evaluated 3 h, 6 h, 1 day and 2 days after the first administration, and HbA1c was detected in an EDTA anticoagulation tube 48 h after the last administration.

[2] = tested on: db/db mice; experiment: Single-dose pharmacodynamic study on db/db mice (Example 5); type: in vivo; settings: single s.c. 100 μg/kg
Method: The title compounds of Examples 1-4 and Comparative Examples 1-4 (also known as GLP-1 derivatives) were tested in a single dose study on an obese mouse model (db/db mice) with type 2 diabetes (T2DM). The hypoglycemic drug effect of the GLP-1 derivatives was tested at a dose of 100 μg/kg.
(§1) Male db/db (BKS/Lepr) mice aged 8-9 weeks were housed in appropriately sized feeding cages in a barrier environment and had free access to standard food and purified water, with environmental conditions controlled at 40%-60% relative humidity (RH) and 22-24° C. After an adaptation period of 1-2 weeks, the mice were used in the experiment.
Before the start of the experiment on the day, the mice were evaluated for baseline blood glucose at about 9:30 a.m. and weighed. […]
The GLP-1 derivatives were dissolved in the vehicle to an administration concentration of 20 μg/mL, and the administration volume was 5 mL/kg (i.e., 50 μL/10 g body weight). […] The tail of each mouse was cleaned with an alcohol cotton ball, and blood drops were collected from the tail using a disposable blood collection needle and measured with a glucometer and accompanying testing strips (Roche). Food intake and body weight of each mouse were measured at 24 h, 48 h and 72 h after the administration. […]

[3] = tested on: db/db mice; experiment: Single-dose study of blood glucose, food and water intake on db/db mice (Example 15); type: in vivo; settings: single s.c. 100 μg/kg
Method: as §1, with “RH” for “relative humidity (RH)”
Before the start of the experiment on the day, the mice were evaluated for baseline blood glucose at about 9:00 a.m. and weighed.
The GLP-1 derivatives were dissolved in the vehicle to an administration concentration of 20 μg/mL, and the administration was performed once by subcutaneous injection (s.c., 50 μL/10 g body weight) at back of the neck. The compound of Example 2 was administered at about 10:00 a.m. (time 0), and the blood glucose of the mice was evaluated 1 h, 2 h, 3 h, 6 h, 12 h, 24 h, 48 h and 72 h after the administration. The tail of each mouse was cleaned with an alcohol cotton ball, and blood drops were collected from the tail using a disposable blood collection needle and measured with a glucometer (Roche) and accompanying testing strips. Meanwhile, the food intake and water intake of the mice were monitored every day.
The dose-response curve of blood glucose versus time, the dose-response curve of food intake versus time, and the dose-response curve of water intake versus time were plotted for each single dose of GLP-1 derivative. […]

[4] = target: T1, human GLP-1 receptor (Homo sapiens, UniProt P43220); experiment: GLP-1 receptor binding, displacement of 125I-GLP-1, low and high HSA; settings: 2% HSA versus 0.005% HSA
T1 construct: host or cells: cell membrane preparation
T1 sequence (P43220 24-463): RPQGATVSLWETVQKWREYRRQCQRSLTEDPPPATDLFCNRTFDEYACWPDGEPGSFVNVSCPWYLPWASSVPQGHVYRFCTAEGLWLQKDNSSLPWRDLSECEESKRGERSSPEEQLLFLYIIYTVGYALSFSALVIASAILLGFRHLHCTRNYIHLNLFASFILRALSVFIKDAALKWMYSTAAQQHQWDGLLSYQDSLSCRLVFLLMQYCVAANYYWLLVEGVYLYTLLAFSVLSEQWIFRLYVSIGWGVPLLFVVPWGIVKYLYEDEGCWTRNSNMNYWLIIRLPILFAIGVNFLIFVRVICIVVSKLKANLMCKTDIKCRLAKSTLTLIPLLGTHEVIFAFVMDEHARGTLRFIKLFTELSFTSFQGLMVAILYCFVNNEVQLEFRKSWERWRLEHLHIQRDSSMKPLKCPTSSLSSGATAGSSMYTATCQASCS
Method: For a receptor binding test in the presence of low-concentration HSA (0.005% (w/v)), 50 μL of assay buffer was added to each well of the assay plate. For a receptor binding test in the presence of high-concentration HSA (2% (w/v)), 50 μL of 8% (w/v) albumin stock solution was added to each well of the assay plate. […] In the presence of 0.005% HSA, all test compounds and the reference control were diluted to 2 μM with assay buffer, and then all samples were diluted in 4-fold serial gradient dilutions for a total of 10 concentration gradients. […] 25 μL of test compounds or reference control at different concentrations were added to the appropriate wells of the assay plate, respectively. Cell membrane protein aliquots were thawed and diluted to their working concentration (40 μg/mL), and 50 μL of the cell membrane-containing solution was added to each well of the assay plate. […] The assay plate was incubated at room temperature for 1 h. After the incubation, the reaction solution was collected on a GF/C filter plate using a cell collector, washed 6 times with a washing buffer, and dried in a drying oven at 50° C. for 1 h. 50 μL of scintillation solution was added and blocked, and the values were read using Microbeta2. IC50 values were calculated by the nonlinear regression analysis in the GraphPad Prism software and reported in nM. […]

Substance	hypoglycemic effect on Kkay mice compared to dulaglutide [1]	effective duration of action of hypoglycemic effect on db/db mice compared to semaglutide [2]	hypoglycemic effect on db/db mice compared to semaglutide ([2]; FIGS. 2a-2b)	control of food intake and water intake compared to semaglutide ([3]; db/db mice, FIGS. 7c-7d)	hypoglycemic effect on db/db mice compared to semaglutide ([3]; same dose, FIGS. 7a-7b)	Ratio [(IC50/nM) high-concentration HSA]/[(IC50/nM) low-concentration HSA] [4]
N-ε^26-[2-(2-[2-(4-[19-carboxynonadecanoylamino]-4(S)-carboxybutanoylamino)ethoxy]ethoxy)acetyl][Gly8, Arg34]GLP-1-(7-37) Peptide [Compound 2]	significantly superior hypoglycemic effect on Kkay mice to dulaglutide	longer than that of semaglutide	superior hypoglycemic effect to semaglutide	its effect is superior to semaglutide	superior hypoglycemic effect	
semaglutide						813
